From PubChem BioAssay AID248 (DTP/NCI, 2004)
“And” between values parts separate entries of the source, which are not always exact repeats. Equal entries are not always repeated. Inconclusive results and toxic doses are left out. Rule as the data show it: active = T/C of 150% or more; inactive = T/C below 125%.

Test system: L1210 leukemia ip in BDF1 mice, survival T/C
Assay: NCI In Vivo Anticancer Drug Screen. Data for tumor model L1210 Leukemia (intraperitoneal) in B6D2F1 (BDF1) mice
Conditions: endpoint: mean survival time, higher = longer survival
How it was run: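 Each compound was tested against a transplantable tumor grown in mice. The endpoint was survival, with treated animals benchmarked against vehicle controls as a simple ratio.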

[1] = dose: 10.0 mg/kg/injection, schedule: Q01DX001 (ip), vehicle: saline
[2] = dose: 100.0 mg/kg/injection, schedule: Q01DX001 (ip), vehicle: carboxymethylcellulose (CMC)
[3] = dose: 200.0 mg/kg/injection, schedule: Q01DX001 (ip), vehicle: carboxymethylcellulose (CMC)
[4] = dose: 400.0 mg/kg/injection, schedule: Q01DX001 (ip), vehicle: carboxymethylcellulose (CMC)
[5] = dose: 100.0 mg/kg/injection, schedule: Q01DX001 (ip), vehicle: Klucel (hydroxypropylcellulose) (HPC)
[6] = dose: 200.0 mg/kg/injection, schedule: Q01DX001 (ip), vehicle: Klucel (hydroxypropylcellulose) (HPC)
[7] = dose: 400.0 mg/kg/injection, schedule: Q01DX001 (ip), vehicle: Klucel (hydroxypropylcellulose) (HPC)
[8] = dose: 100.0 mg/kg/injection, schedule: Q01DX001 (ip), vehicle: saline
[9] = dose: 200.0 mg/kg/injection, schedule: Q01DX001 (ip), vehicle: saline
[10] = dose: 400.0 mg/kg/injection, schedule: Q01DX001 (ip), vehicle: saline

Measured: T/C

CC1OC(O[C@@H]2C=C3CC[C@@H]4[C@H](CC[C@]5(C)[C@@H](c6ccc(=O)oc6)CC[C@]45O)[C@@]3(C)CC2)C(O)C(OC2OC(CO)C(O)C(O)C2O)C1O (some centres undefined)
inactive: dose: 1.0 mg/kg/injection, schedule: Q01DX015 (sc), vehicle: steriod suspending solution 95 % of control | dose: 2.0 mg/kg/injection, schedule: Q01DX015 (sc), vehicle: steriod suspending solution 98 % of control | dose: 4.0 mg/kg/injection, schedule: Q01DX015 (sc), vehicle: steriod suspending solution 96 % of control | dose: 5.0 mg/kg/injection, schedule: Q01DX001 (ip), vehicle: saline 95 % of control | dose: 8.0 mg/kg/injection, schedule: Q01DX015 (sc), vehicle: steriod suspending solution 97 % of control | [1] 106 % of control | dose: 16.0 mg/kg/injection, schedule: Q01DX015 (sc), vehicle: steriod suspending solution 103 % of control | dose: 20.0 mg/kg/injection, schedule: Q01DX001 (ip), vehicle: saline 97 % of control | dose: 32.0 mg/kg/injection, schedule: Q01DX015 (sc), vehicle: steriod suspending solution 100 % of control

Nc1ccc(CCC(=O)NC(CCC(=O)O)C(=O)O)cc1 (centres undefined)
inactive: dose: 100.0 mg/kg/injection, schedule: Q01DX009 (ip), vehicle: saline 102 % of control | dose: 100.0 mg/kg/injection, schedule: Q04DX002 (ip), vehicle: saline 98 % of control | dose: 200.0 mg/kg/injection, schedule: Q01DX009 (ip), vehicle: saline 108 % of control | dose: 200.0 mg/kg/injection, schedule: Q04DX002 (ip), vehicle: saline 105 % of control | dose: 400.0 mg/kg/injection, schedule: Q01DX009 (ip), vehicle: saline 96 % of control | dose: 400.0 mg/kg/injection, schedule: Q04DX002 (ip), vehicle: saline 94 % of control

Nc1c(Cl)ncn2c(=O)n(Cc3ccccc3)nc12
inactive: [2] 96 % of control | [3] 105 % of control | [4] 105 % of control

O=C(NCCCCNC(=O)Nc1ccc(C2=NCCN2)cc1)Nc1ccc(C2=NCCN2)cc1
inactive: dose: 8.0 mg/kg/injection, schedule: Q01DX Z (ip), vehicle: carboxymethylcellulose (CMC) 88 % of control | dose: 16.0 mg/kg/injection, schedule: Q01DX Z (ip), vehicle: carboxymethylcellulose (CMC) 92 % of control | dose: 31.0 mg/kg/injection, schedule: Q01DX Z (ip), vehicle: carboxymethylcellulose (CMC) 101 % of control | dose: 62.0 mg/kg/injection, schedule: Q01DX Z (ip), vehicle: carboxymethylcellulose (CMC) 123 % of control | dose: 125.0 mg/kg/injection, schedule: Q01DX Z (ip), vehicle: carboxymethylcellulose (CMC) 112 % of control

O=C1CC(N2C(=O)C3C4CCC(CC4)C3C2=O)C(=O)N1 (centres undefined)
inactive: dose: 100.0 mg/kg/injection, schedule: Q04DX003 (ip), vehicle: saline with Tween-80 96 % of control | dose: 200.0 mg/kg/injection, schedule: Q04DX003 (ip), vehicle: saline with Tween-80 100 % of control | dose: 400.0 mg/kg/injection, schedule: Q04DX003 (ip), vehicle: saline with Tween-80 112 % of control

NC(=O)Nc1ccc2c(c1)Cc1cc(F)ccc1-2
inactive: dose: 87.0 mg/kg/injection, schedule: Q01DX001 (ip), vehicle: other 100 % of control | dose: 89.0 mg/kg/injection, schedule: Q01DX001 (ip), vehicle: carboxymethylcellulose (CMC) 97 % of control and 109 % of control | [2] 97 % of control | dose: 132.0 mg/kg/injection, schedule: Q01DX001 (ip), vehicle: other 97 % of control | dose: 133.0 mg/kg/injection, schedule: Q01DX001 (ip), vehicle: carboxymethylcellulose (CMC) 100 % of control and 112 % of control | [3] 104 % of control and 105 % of control | dose: 200.0 mg/kg/injection, schedule: Q01DX001 (ip), vehicle: other 92 % of control | dose: 300.0 mg/kg/injection, schedule: Q01DX001 (ip), vehicle: carboxymethylcellulose (CMC) 101 % of control and 108 % of control | dose: 300.0 mg/kg/injection, schedule: Q01DX001 (ip), vehicle: other 97 % of control | [4] 105 % of control

CCCCCCCCCCCCCCCC(N)=O
inactive: dose: 100.0 mg/kg/injection, schedule: Q01DX009 (ip), vehicle: Klucel (hydroxypropylcellulose) (HPC) 93 % of control | dose: 100.0 mg/kg/injection, schedule: Q04DX003 (ip), vehicle: Klucel (hydroxypropylcellulose) (HPC) 90 % of control | dose: 200.0 mg/kg/injection, schedule: Q01DX009 (ip), vehicle: Klucel (hydroxypropylcellulose) (HPC) 102 % of control | dose: 200.0 mg/kg/injection, schedule: Q04DX003 (ip), vehicle: Klucel (hydroxypropylcellulose) (HPC) 87 % of control | dose: 400.0 mg/kg/injection, schedule: Q01DX009 (ip), vehicle: Klucel (hydroxypropylcellulose) (HPC) 94 % of control | dose: 400.0 mg/kg/injection, schedule: Q04DX003 (ip), vehicle: Klucel (hydroxypropylcellulose) (HPC) 98 % of control

Nc1ccnc(SCCCCc2ccccc2)n1
inactive: dose: 100.0 mg/kg/injection, schedule: Q04DX003 (ip), vehicle: gum acacia 90 % of control | dose: 200.0 mg/kg/injection, schedule: Q04DX003 (ip), vehicle: gum acacia 93 % of control | dose: 400.0 mg/kg/injection, schedule: Q04DX003 (ip), vehicle: gum acacia 90 % of control

COC(=O)N1C=C2C(C)=CC1C(C#N)(C#N)C2(C#N)C#N (centres undefined)
inactive: [1] 105 % of control and 87 % of control | dose: 40.0 mg/kg/injection, schedule: Q01DX001 (ip), vehicle: saline 98 % of control

c1ccc(-c2nnnn2-c2ccccc2)cc1
inactive: dose: 100.0 mg/kg/injection, schedule: Q01DX001 (ip), vehicle: saline with Tween-80 102 % of control | dose: 200.0 mg/kg/injection, schedule: Q01DX001 (ip), vehicle: saline with Tween-80 98 % of control | dose: 400.0 mg/kg/injection, schedule: Q01DX001 (ip), vehicle: saline with Tween-80 105 % of control

Cc1c(C(C)(C)C)cc(C(C)(C)C)c(O)c1[N+](=O)[O-]
inactive: [2] 93 % of control and 95 % of control | dose: 100.0 mg/kg/injection, schedule: Q04DX002 (ip), vehicle: carboxymethylcellulose (CMC) 90 % of control and 91 % of control | dose: 100.0 mg/kg/injection, schedule: Q04DX003 (ip), vehicle: carboxymethylcellulose (CMC) 97 % of control and 98 % of control | [3] 95 % of control and 99 % of control and 111 % of control | dose: 200.0 mg/kg/injection, schedule: Q04DX002 (ip), vehicle: carboxymethylcellulose (CMC) 87 % of control and 89 % of control | dose: 200.0 mg/kg/injection, schedule: Q04DX003 (ip), vehicle: carboxymethylcellulose (CMC) 96 % of control and 90 % of control | [4] 94 % of control and 101 % of control and 105 % of control | dose: 400.0 mg/kg/injection, schedule: Q04DX002 (ip), vehicle: carboxymethylcellulose (CMC) 96 % of control and 111 % of control | dose: 400.0 mg/kg/injection, schedule: Q04DX003 (ip), vehicle: carboxymethylcellulose (CMC) 96 % of control and 87 % of control

ClC(Cl)C(c1ccccc1)c1ccccc1
inactive: [5] 100 % of control | [6] 97 % of control | [7] 92 % of control

COc1ccc(C(=O)/C=C/c2ccccc2O)cc1
inactive: dose: 75.0 mg/kg/injection, schedule: Q04DX003 (ip), vehicle: saline 104 % of control | dose: 150.0 mg/kg/injection, schedule: Q04DX003 (ip), vehicle: saline 101 % of control | dose: 300.0 mg/kg/injection, schedule: Q04DX003 (ip), vehicle: saline 96 % of control

C=CC/C=C/C
inactive: [5] 93 % of control | [6] 109 % of control | [7] 100 % of control

C=C1C(C)=NN=C2C=CN(C(=O)CI)N12
inactive: [8] 109 % of control | [9] 106 % of control | [10] 106 % of control

CC(=O)NC1C(OC(C)=O)OC(COC(c2ccccc2)(c2ccccc2)c2ccccc2)C(OC(C)=O)C1OC(C)=O (centres undefined)
inactive: [8] 108 % of control | [9] 96 % of control | [10] 96 % of control
